The source of these data is article PMC5237291, “Sigma-2 receptor agonist derivatives of 1-Cyclohexyl-4-[3-(5-methoxy-1,2,3,4-tetrahydronaphthalen-1-yl)propyl]piperazine (PB28) induce cell death via mitochondrial superoxide production and caspase activation in pancreatic cancer” (BMC Cancer, 2017).

Each structure is given as a SMILES string. Read-outs that look alike come from different tables or passages of the source. Bounds are passed on as bounds.

For data set [1], the system named is Panc02 cells. The experiment in a line: ROS interference in cell viability (MTT with antioxidants). Format: cell-based, mouse. The note with it: 24 h. Here is the method: The interference of ROS in cell viability was indirectly determined by MTT assay reported above at 24 h. On day 1, Panc02 cells were plated at a density of 2 × 10^4 cells/well in opaque 96-well, clear-bottom plates 24 h prior to treatment. On day 2, cells were treated with the drugs (50 μM) in the presence or absence of α-tocopherol (100 μM) or N-Acetyl-L-cysteine (100 μM). After incubation (24 h) with drugs, MTT assay was performed as above.

Another data set deals with KCKO cells. Briefly: MTT cell viability, KCKO. Format: cell-based. The following applies: Mus musculus, 24 h treatment, viability relative to vehicle. Here is the method:
(§1) Determination of cell growth was performed using the MTT assay at 24 h. On day 1, pancreatic cancer cell lines were plated at a density of 2 × 10^4 cells/well in black clear-bottom 96-well plates for 24 h prior to treatment in a volume of 100 μL. On day 2, the cells were treated for 24 h with the various drugs concentration (1 μM-100 μM). Untreated cells served as a control. The various drug-solvents (EtOH, DMSO) were added in each control to evaluate a possible solvent cytotoxicity. After the established incubation time with drugs (24 h), MTT (0.5 mg/ml) was added to each well, and after 3–4 h incubation at 37 °C, the supernatant was removed. The formazan crystals were solubilized using 100 μl of DMSO/EtOH (1:1) and the absorbance values at 570 and 630 nm were determined on the multi-mode microplate reader (BioTek instruments, Winooski, VT). Different drug concentrations were assayed in triplicates.
(§2) Statistical analyses and data plotting were performed using GraphPad Prism software version 6.03 (San Diego, CA). Results were expressed as mean ± standard error of the mean of at least 3 biological replicates. EC50 values were calculated by curve fitting normalized viability versus drug concentration. Differences in viability, caspase-3 activity, and tumor volume were analyzed using two-way ANOVA to identify differences and confirmed with paired two tailed t-tests. Mann-Whitney test was used to compare the difference in CBC and biochemistry analyses. Kaplan-Meier survival analyses were used to assess differences between treatment groups and were compared using a log-rank test. A p-value < 0.05 was considered significant for all analyses.

The target of the next data set is sigma-2 receptor. The note with it: ref Berardi, read-out: Affinity (Ki) σ2, cited from earlier work.
The nature of data set [2]: Toxicity evaluation on mice not bearing tumor (CBC, serum chemistry, pathology). Format: in vivo, C57BL/6 mice. The note with it: for Off-target effects by necropsy and laboratory evaluations: naïve C57BL/6 mice, continuous daily treatment; for Creatinine: control 0.34 ± 0.02; for RBC: control 7.14 ± 0.1; for WBC: control 10.58 ± 0.2; for HGB: control 10.7 ± 0.7; for MCH: control 15 ± 0.54; for BUN: control 27 ± 0.4; for MCHC: control 29.2 ± 1.21; for HCT: control 36.6 ± 0.08; for MCV: control 51.2 ± 0.32; for Glucose: control 62 ± 12.5; for ALT: control 260 ± 21; for Platelets: control 486 ± 67. Here is the method: […] Mice from each treatment cohort were assessed for pathologic evaluation (Digestive Diseases Research Core Center at our institution). Blood was collected for complete blood count (CBC) and biochemical analysis (AST, ALT, BUN, total protein, glucose and Cr). Organs were examined grossly and histologically.

A further data set concerns BxPC3 cells. The experiment in a line: MTT cell viability, BxPC3. Format: cell-based, human. The note with it: Homo sapiens, BXPC-3, 24 h, 24 h treatment, viability relative to vehicle. Here is the method:
as §1, §2

In another data set the test system is Panc02 tumors. Briefly: In vivo tumor growth and survival, Panc02 tumors in C57BL/6 mice. The note with it: for Effect on tumor volume (in words) / Mean tumor volume following conclusion of treatment: Panc02 s.c. in female C57BL/6; for Effect on tumor volume (in words): daily i.p. treatment, compared to vehicle or gemcitabine; for Mean tumor volume following conclusion of treatment: i.p. daily for two weeks (gemcitabine once weekly), vehicle mean = 924 mm^3. Here is the method:
In this pre-clinical model, we utilized the Panc02 cell line, which is weakly immunogenic in C57BL/6 mice and aggressive with a subcutaneous inoculum of 1 × 10^5 cells being lethal within 6–8 weeks. In vivo studies with mice were performed to compare the effect of sigma-2 ligands with gemcitabine. Mice treated with vehicle alone (a mixture of 5% DMSO, 5% EtOH, and 10% Cremophor in H2O) served as the control cohort. Female C57BL/6 mice (10 weeks old, National Cancer Institute Laboratories) were injected in the right flank with 200 μL of a single-cell suspension of Panc02 cells in non-supplemented RPMI medium (1 × 10^6 cells per mouse). Treatment began when the mean tumor diameter was ~ 5 mm. […] Tumors were measured three times weekly in two dimensions with a digital caliper, and tumor volumes were calculated by the standard formula of Tumor Volume = Length x Width^2 × 0.5. All mice were euthanized when tumors reached a diameter of 15 mm or had ulcerated.

A further data set concerns MIAPaCa-2 cells. The experiment in a line: MTT cell viability, MIAPaCa-2. Format: cell-based. The note with it: Homo sapiens, MIA PaCa-2, 24 h treatment, viability relative to vehicle. Here is the method: as §1, §2
A further data set deals with caspase-3. Briefly: Caspase-Glo caspase-3 activity in Panc02 cells. The following applies: 200 μM, 5 h; for Caspase-3 activation (in words): compared to DMSO control. Format: cell-based, mouse. Here is the method:
Caspase-3 activity was measured in Panc02 cell lines with a Caspase-Glo® Assay Systems (Promega) according to protocol in which the reagent contain luminogenic caspase substrates that cleaved by activated caspase. […] The contents were then mixed using plate shaker for 30 s, and incubated at room temperature for 90 min. Luminescence signal was measured using multi-mode microplate reader (BioTek). Assay was performed in triplicates, and caspase activity was plotted compared cells treated with DMSO as a control.

The test system of the next data set is Panc-1 cells. Briefly: MTT cell viability, Panc-1. The following applies: Homo sapiens, 24 h treatment, viability relative to vehicle. Format: cell-based. Here is the method:
as §1, §2

For the next data set, the system named is KP02 cells. Briefly: MTT cell viability, KP02. Format: cell-based, mouse. The note with it: Mus musculus, 24 h, 24 h treatment, viability relative to vehicle. Here is the method: as §1, §2
In data set [3] the test system is Panc02 cells. Briefly: MTT cell viability, Panc02. The note with it: Mus musculus, 24 h treatment, viability relative to vehicle. Format: cell-based. Here is the method: as §1, §2
Another data set concerns AsPC-1 cells. The experiment in a line: MTT cell viability, AsPC-1. Format: cell-based. The note with it: Homo sapiens, ASPC1, 24 h treatment, viability relative to vehicle. Here is the method: as §1, §2
The mark [4] stands for this setting: not tumor-bearing C57BL/6 mice, n = 3, daily i.p., 5 days.

For `CC(=O)N[C@@H](CS)C(=O)O` [N-acetyl-L-cysteine (NAC), N-Acetyl-L-cysteine, reference compound], the “Protection against sigma-2 ligand induced cell death (Panc02 viability)” value in the data set with Panc02 cells [1] (antioxidant 100 μM one hour prior to sigma-2 ligands 50 μM) was “did not”.
Consider `COc1cccc2c1CCCC2CCCN1CCN(C2CCCCC2)CC1` (centres unmarked) [PB28, 1-Cyclohexyl-4-[3-(5-methoxy-1,2,3,4-tetrahydronaphthalen-1-yl)propyl] piperazine], for which it took 87 µM to reach a half-maximal effect in the data set on KCKO cells (EC50). Also, the Ki on sigma-2 receptor (et al. 2009 [26]) is 0.00068 µM. Besides, the “Off-target effects by necropsy and laboratory evaluations” value (“Off-target effects” for short) in data set [2] is on record as “no major off-target effects”. Further, in data set [2] (setting [4]), the Creatinine was 0.37 ± 0.04 mg/dL, the RBC was 10.24 ± 0.3 10^6/μL, the WBC is listed as 11.11 ± 1.97 10^3/μL and the HGB is given as 15.65 ± 0.55 g/dL. Also, in data set [2] (setting [4]), the MCH worked out at 15.3 ± 0.1 pg, the BUN turned out to be 32 ± 1 mg/dL, the MCHC was determined as 29.3 ± 0.2% and the HCT came to 53.4 ± 1.5%. Further, in [2] (setting [4]), the MCV was 52.15 ± 0.05 fL, the Glucose was 92.5 ± 22.5 mg/dL, the ALT came out at 249 ± 9 μ/L and the Platelets is 643.5 ± 95.5 10^3/μL. The EC50 in the data set on BxPC3 cells is > 100 µM. In the data set with Panc02 tumors, the “Effect on tumor volume (in words)” value is reported as “decreased tumor volume similar to gemcitabine alone” and the “Mean tumor volume following conclusion of treatment” value was found to be 369 mm^3. For the same compound, the Median survival with Panc02 tumors (Panc02 tumor-bearing C57BL/6 mice, treatment discontinued on day 15, DMSO (vehicle) 23 days) stood at 27 days. The compound further displayed an EC50 in the data set with MIAPaCa-2 cells of 51 µM. Moreover, the “Caspase-3 activation (in words)” value in the data set with caspase-3 is given as “did not activate at all”. In the data set with Panc-1 cells, the EC50 is > 100 µM. Also, the EC50 in the data set with KP02 cells was > 100 µM. Moreover, the EC50 in the data set with Panc02 cells [3] was determined as 43 µM. Moreover, the EC50 with AsPC-1 cells is > 100 µM.
On to `COc1cccc2c(CCCN3CCN(C4CCCCC4)CC3)cccc12` [PB183, 1-Cyclohexyl-4-[3-(5-methoxynaphthalen-1-yl)propyl]-piperazine], for which the EC50 with KCKO cells turned out to be 51 µM. Further, the Ki on sigma-2 receptor (et al. 2004 [25]) was 0.00924 µM. The “Cell death on co-treatment with NAC” value in the data set with Panc02 cells [1] (Panc02 cells, ligand 50 μM with NAC 100 μM) is recorded as “even higher levels of cell death”. In addition, in data set [2], the “Off-target effects” value was “no major off-target effects”. Also, in [2] (setting [4]), the Creatinine is on record as 0.37 ± 0.04 mg/dL, the RBC is 9.24 ± 0.9 10^6/μL, the WBC is reported as 6.42 ± 1.22 10^3/μL and the HGB is recorded as 14.85 ± 1.35 g/dL. Further, in [2] (setting [4]), the MCH was 16.1 ± 0.1 pg, the BUN is 21 ± 2 mg/dL, the MCHC turned out to be 30.4 ± 0.7% and the HCT was 48.8 ± 3.3%. For the same compound, in data set [2] (setting [4]), the MCV is 52.9 ± 1.6 fL, the ALT was 203 ± 34 μ/L and the Platelets is given as 727.5 ± 65.5 10^3/μL. Moreover, the AST in [2] (not tumor-bearing C57BL/6 mice, n = 3, daily i.p., 5 days, control 5.6 ± 0.05) stood at 5.4 ± 0.5 μ/L. It took 100 µM to reach a half-maximal effect with BxPC3 cells (EC50). For the same compound, the “Effect on tumor volume (in words)” value in the data set on Panc02 tumors is “not effective”. Moreover, the EC50 in the data set with MIAPaCa-2 cells was determined as 49 µM. Further, in the data set on caspase-3, the “Caspase-3 activation (in words)” value was “little effect”. Moreover, the EC50 in the data set on Panc-1 cells is > 100 µM. In the data set on KP02 cells, this compound yielded an EC50 of 97 µM. Moreover, the midpoint of the response with Panc02 cells [3], the EC50, lay at 83 µM. For the same compound, in the data set with AsPC-1 cells, the EC50 was > 100 µM.
Turning to `COc1cccc2c1CCCC2CCCN1CCC(C2CCCCC2)CC1` (centres unmarked) [PB221, 4-Cyclohexyl-1-[3-(5-methoxy-1,2,3,4-tetrahydronaphthalen-1-yl-propyl)]piperidine], in the data set on KCKO cells, the EC50 stood at 19 µM. Further, the Ki on sigma-2 receptor (et al. 2009 [26]) is 0.0188 µM. The “Off-target effects” value in data set [2] was “no major off-target effects”. Moreover, in [2] (setting [4]), the Creatinine came to 0.35 ± 0.03 mg/dL, the RBC is recorded as 9.59 ± 0.71 10^6/μL, the WBC is 8.12 ± 0.14 10^3/μL and the HGB came out at 14.7 ± 0.8 g/dL. In data set [2] (setting [4]), the MCH is 15.35 ± 0.35 pg, the BUN was 30.5 ± 3.5 mg/dL, the MCHC is reported as 29.25 ± 0.55% and the HCT came to 50.35 ± 3.75%. In data set [2] (setting [4]), the MCV was found to be 52.5 ± 0.02 fL, the Glucose was determined as 64.5 ± 7.5 mg/dL, the ALT is 219 ± 5 μ/L and the Platelets is on record as 563 ± 17 10^3/μL. The compound also yielded an EC50 in the data set on BxPC3 cells of 100 µM. Also, the “Effect on tumor volume (in words)” value with Panc02 tumors was “did not confer a significantly different tumor volume than vehicle alone”. The EC50 in the data set with MIAPaCa-2 cells amounted to 50 µM. Further, the “Increase of caspase-3 activity compared to cells treated with DMSO vehicle” value in the data set with caspase-3 is on record as 15.7 fold. Moreover, the EC50 in the data set on Panc-1 cells was > 100 µM. Also, in the data set with KP02 cells, the EC50 is > 100 µM. The response in the data set on Panc02 cells [3] was half-maximal at 37 µM (EC50). In the data set with AsPC-1 cells, the EC50 was > 100 µM.
On to `Nc1ccn([C@@H]2O[C@H](CO)[C@@H](O)C2(F)F)c(=O)n1` [gemcitabine, Gemcitabine, reference compound], for which the “Mean tumor volume following conclusion of treatment” value with Panc02 tumors was found to be 395 mm^3.

Broadly, the EC50 is the concentration giving half of the maximal effect. A higher EC50 goes with a need for much substance. A word on the Ki: it is a dissociation constant, usually derived from enzyme kinetics or from competition with a known ligand.
